In ChEMBL document CHEMBL5696442, “Discovery of type II inhibitors of TGFβ-activated kinase 1 (TAK1) and mitogen-activated protein kinase kinase kinase kinase 2 (MAP4K2)” (J Med Chem, 2015):
Active and inactive are the calls of the source. The rule behind the calls is not given here.

Columns and labels:
[1] = target: DNA-PK/Ku70/Ku85 (Homo sapiens) (UniProt P78527+P12956+P13010); assay: Inhibition of DNAPK ATP labeling site harbouring EHPFLVKGGEDLR in human Huh-7 cell lysate at 1 uM by KiNativ Profiling analysis relative to control; format: subcellular
[2] = target: STE20-like serine/threonine-protein kinase (Homo sapiens) (UniProt Q9H2G2); assay: Inhibition of SLK Lys2 labeling site harbouring DLKAGNILFTLDGDIKLADFGVSAK in human Huh-7 cell lysate at 1 uM by KiNativ Profiling analysis relative to control; format: subcellular
[3] = target: Interferon-induced, double-stranded RNA-activated protein kinase (Homo sapiens) (UniProt P19525); assay: Inhibition of PKR Lys2 labeling site in human Huh-7 cell lysate at 1 uM by KiNativ Profiling analysis relative to control; format: subcellular
[4] = target: Tyrosine-protein kinase ABL2 (Homo sapiens, UniProt P42684); assay: Inhibition of ABL2 (unknown origin) at 1 uM by Ambit Kinomescan binding assay relative to control; values are per cent of control
[5] = target: 5'-AMP-activated protein kinase catalytic subunit alpha-2 (Homo sapiens) (UniProt P54646); assay: Inhibition of AMPKa2 Lys2 labeling site in human A-375 cells at 0.5 uM by KiNativ Profiling analysis relative to control; format: cell-based
[6] = target: T1, Inhibitor of nuclear factor kappa-B kinase subunit alpha (Homo sapiens) (UniProt O15111); assay: Inhibition of IKKa Lys2 labeling site in human A-375 cells at 5 uM by KiNativ Profiling analysis relative to control; format: cell-based
T1 sequence (whole entry): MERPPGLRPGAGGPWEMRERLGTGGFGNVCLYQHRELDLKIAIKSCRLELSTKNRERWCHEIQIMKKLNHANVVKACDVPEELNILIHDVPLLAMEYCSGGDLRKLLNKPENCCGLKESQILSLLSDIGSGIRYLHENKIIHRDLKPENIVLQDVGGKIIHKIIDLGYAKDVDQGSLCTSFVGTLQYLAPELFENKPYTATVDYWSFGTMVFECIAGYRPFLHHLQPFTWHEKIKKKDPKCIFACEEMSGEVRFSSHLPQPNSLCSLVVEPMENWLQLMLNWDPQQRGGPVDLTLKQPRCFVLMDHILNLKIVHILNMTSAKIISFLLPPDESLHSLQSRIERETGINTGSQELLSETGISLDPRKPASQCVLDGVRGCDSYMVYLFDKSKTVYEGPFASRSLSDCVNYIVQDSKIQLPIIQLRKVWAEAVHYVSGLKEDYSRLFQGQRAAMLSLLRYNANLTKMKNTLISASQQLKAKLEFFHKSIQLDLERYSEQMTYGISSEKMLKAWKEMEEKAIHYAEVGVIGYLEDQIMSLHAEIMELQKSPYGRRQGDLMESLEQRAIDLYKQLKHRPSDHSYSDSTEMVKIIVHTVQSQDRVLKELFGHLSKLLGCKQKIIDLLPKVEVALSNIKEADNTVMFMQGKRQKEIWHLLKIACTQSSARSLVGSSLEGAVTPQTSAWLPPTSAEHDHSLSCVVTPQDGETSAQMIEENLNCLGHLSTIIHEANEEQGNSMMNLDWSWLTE

[7] = target: Focal adhesion kinase 1 (Homo sapiens) (UniProt Q05397); assay: Inhibition of FAK K1 labeling site in human Huh-7 cells at 10 uM by KiNativ Profiling analysis relative to control; format: cell-based
[8] = target: Serine/threonine-protein kinase Nek6 (Homo sapiens) (UniProt Q9HC98); assay: Inhibition of NEK6 (unknown origin) at 10 uM by Ambit Kinomescan binding assay
[9] = target: MAP kinase-activated protein kinase 5 (Homo sapiens) (UniProt Q8IW41); assay: Inhibition of MAPKAPK5 (unknown origin) at 10 uM by Ambit Kinomescan binding assay
[10] = target: T2, Mitogen-activated protein kinase kinase kinase 5 (Homo sapiens) (UniProt Q99683); assay: Inhibition of MAP3K5 Lys2 labeling site in human A-375 cells at 0.05 uM by KiNativ Profiling analysis relative to control; format: cell-based
T2 sequence (whole entry): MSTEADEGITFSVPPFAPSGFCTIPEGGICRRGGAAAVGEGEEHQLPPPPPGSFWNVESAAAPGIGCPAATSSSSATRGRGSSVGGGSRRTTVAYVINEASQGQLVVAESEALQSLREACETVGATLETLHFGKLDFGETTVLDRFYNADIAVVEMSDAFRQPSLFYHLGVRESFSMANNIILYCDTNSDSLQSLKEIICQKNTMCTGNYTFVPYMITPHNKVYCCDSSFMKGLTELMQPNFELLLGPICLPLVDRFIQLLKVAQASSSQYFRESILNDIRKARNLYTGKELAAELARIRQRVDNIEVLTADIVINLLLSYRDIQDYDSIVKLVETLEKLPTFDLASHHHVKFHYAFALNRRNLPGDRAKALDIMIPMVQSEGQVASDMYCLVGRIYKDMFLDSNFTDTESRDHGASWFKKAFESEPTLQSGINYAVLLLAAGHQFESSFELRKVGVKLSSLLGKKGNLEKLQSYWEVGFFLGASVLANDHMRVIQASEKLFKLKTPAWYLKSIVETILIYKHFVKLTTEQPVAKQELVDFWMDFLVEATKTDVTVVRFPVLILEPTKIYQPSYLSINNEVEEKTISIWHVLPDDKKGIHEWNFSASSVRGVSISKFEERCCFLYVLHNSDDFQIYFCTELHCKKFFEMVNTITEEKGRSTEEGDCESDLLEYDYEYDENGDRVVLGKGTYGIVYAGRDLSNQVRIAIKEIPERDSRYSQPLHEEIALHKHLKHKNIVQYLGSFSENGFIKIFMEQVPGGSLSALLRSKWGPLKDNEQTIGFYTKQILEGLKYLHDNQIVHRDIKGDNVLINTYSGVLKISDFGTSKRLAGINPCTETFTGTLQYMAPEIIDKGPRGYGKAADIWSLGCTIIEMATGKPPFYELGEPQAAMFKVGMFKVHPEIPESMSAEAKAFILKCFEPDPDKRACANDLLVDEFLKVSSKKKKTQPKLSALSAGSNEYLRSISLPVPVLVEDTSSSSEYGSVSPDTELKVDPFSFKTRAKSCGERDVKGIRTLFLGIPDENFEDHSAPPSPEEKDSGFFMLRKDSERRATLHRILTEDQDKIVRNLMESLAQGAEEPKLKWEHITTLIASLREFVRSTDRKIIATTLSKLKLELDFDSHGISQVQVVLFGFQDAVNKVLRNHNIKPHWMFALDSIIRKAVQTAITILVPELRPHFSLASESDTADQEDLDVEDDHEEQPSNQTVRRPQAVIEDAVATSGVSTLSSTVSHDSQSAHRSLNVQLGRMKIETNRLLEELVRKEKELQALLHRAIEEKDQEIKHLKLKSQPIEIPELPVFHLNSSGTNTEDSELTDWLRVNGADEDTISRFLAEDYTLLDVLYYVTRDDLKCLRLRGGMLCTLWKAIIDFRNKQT

MAP kinase-activated protein kinase 5 (Homo sapiens), sequence (Q8IW41 whole entry): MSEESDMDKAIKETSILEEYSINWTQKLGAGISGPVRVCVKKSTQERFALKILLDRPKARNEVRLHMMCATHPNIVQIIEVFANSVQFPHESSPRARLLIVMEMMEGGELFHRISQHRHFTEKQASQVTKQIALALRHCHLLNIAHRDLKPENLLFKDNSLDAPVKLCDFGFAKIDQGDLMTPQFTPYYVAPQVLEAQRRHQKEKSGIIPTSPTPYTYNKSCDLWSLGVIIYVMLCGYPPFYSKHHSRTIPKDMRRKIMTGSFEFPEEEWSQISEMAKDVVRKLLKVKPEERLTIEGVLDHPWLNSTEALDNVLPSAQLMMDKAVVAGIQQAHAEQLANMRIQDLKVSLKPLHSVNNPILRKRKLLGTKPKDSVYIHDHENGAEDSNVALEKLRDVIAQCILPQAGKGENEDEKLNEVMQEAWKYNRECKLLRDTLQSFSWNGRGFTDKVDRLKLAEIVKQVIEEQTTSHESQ
5'-AMP-activated protein kinase catalytic subunit alpha-2 (Homo sapiens), sequence (P54646 whole entry, looked up): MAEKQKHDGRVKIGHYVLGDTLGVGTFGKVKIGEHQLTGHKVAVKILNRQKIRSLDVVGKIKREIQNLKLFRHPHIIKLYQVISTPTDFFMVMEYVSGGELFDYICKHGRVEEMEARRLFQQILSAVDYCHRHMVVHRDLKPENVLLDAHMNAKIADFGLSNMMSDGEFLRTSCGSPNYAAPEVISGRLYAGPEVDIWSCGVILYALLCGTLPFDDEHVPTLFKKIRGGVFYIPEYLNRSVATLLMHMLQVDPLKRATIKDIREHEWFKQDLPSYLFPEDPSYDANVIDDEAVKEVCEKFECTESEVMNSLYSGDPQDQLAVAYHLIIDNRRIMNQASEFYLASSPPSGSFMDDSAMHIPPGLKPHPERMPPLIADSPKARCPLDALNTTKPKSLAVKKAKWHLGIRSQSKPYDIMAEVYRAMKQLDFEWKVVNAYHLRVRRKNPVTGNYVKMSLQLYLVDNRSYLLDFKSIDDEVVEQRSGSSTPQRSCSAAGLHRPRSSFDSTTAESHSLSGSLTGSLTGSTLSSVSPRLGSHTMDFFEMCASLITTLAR
Tyrosine-protein kinase ABL2, sequence (P42684 whole entry): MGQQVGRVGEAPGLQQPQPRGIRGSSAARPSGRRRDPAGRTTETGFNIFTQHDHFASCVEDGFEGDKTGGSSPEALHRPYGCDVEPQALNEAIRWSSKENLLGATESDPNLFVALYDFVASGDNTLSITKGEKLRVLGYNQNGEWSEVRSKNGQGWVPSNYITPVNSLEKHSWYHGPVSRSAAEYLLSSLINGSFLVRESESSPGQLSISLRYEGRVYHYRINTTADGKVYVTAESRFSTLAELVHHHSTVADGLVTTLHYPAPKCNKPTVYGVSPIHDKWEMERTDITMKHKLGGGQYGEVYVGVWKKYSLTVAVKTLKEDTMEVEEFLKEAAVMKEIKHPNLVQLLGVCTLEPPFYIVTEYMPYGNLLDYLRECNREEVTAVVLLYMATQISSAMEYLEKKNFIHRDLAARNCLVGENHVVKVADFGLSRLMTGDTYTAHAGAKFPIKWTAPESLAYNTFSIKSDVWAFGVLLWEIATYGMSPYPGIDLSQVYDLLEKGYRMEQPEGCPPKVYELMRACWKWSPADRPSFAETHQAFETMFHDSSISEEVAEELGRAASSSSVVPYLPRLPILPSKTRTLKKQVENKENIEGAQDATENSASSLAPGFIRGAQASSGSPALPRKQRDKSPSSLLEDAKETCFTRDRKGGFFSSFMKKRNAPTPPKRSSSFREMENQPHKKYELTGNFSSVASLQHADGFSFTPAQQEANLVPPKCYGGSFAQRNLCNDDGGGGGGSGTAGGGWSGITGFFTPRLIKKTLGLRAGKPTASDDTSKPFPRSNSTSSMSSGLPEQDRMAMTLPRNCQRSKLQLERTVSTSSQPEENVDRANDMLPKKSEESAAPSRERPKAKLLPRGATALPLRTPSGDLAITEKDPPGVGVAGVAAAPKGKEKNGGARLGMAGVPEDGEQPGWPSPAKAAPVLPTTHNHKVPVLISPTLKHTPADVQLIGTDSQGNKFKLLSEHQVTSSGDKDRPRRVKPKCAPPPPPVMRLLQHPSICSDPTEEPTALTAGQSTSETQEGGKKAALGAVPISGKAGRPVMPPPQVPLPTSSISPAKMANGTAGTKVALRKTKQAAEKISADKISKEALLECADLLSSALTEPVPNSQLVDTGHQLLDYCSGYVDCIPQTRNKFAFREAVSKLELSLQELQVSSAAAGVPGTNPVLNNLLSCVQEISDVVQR
Serine/threonine-protein kinase Nek6 (Homo sapiens), sequence (Q9HC98 whole entry): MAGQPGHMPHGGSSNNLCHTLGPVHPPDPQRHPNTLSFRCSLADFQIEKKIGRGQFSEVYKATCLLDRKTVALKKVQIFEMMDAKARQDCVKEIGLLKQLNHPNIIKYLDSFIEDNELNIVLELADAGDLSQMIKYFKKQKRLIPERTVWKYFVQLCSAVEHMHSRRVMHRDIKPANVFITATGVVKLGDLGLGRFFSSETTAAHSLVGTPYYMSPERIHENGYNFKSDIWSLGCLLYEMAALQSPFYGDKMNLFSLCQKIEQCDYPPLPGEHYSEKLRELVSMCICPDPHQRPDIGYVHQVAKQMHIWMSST
Focal adhesion kinase 1 (Homo sapiens), sequence (Q05397 2-1052 limits assumed): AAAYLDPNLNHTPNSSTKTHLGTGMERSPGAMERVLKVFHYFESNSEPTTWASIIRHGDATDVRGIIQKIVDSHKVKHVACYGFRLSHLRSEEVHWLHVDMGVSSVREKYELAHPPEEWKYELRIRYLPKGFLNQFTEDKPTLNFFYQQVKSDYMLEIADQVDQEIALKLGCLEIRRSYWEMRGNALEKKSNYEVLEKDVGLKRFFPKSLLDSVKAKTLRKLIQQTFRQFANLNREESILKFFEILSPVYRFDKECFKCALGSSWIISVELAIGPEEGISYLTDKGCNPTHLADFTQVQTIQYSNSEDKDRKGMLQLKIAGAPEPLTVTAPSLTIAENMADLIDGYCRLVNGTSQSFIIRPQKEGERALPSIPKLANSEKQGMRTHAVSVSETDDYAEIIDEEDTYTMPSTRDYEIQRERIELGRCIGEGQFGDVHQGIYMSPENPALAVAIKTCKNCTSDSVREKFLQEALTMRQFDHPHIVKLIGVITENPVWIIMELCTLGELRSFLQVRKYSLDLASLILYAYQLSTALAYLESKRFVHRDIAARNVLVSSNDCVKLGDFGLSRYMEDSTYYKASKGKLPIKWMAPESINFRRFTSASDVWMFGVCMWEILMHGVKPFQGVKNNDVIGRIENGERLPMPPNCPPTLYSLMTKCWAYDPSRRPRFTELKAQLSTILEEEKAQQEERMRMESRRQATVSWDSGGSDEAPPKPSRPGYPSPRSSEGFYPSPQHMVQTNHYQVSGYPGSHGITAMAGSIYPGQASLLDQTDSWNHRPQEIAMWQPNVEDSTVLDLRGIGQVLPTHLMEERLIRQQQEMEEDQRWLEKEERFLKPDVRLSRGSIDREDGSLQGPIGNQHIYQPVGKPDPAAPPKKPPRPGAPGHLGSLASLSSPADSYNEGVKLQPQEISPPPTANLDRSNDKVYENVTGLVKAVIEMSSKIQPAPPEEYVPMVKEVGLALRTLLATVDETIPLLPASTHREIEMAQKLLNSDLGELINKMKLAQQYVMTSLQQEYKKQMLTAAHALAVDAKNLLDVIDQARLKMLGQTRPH
Interferon-induced, double-stranded RNA-activated protein kinase (Homo sapiens), sequence (P19525 whole entry): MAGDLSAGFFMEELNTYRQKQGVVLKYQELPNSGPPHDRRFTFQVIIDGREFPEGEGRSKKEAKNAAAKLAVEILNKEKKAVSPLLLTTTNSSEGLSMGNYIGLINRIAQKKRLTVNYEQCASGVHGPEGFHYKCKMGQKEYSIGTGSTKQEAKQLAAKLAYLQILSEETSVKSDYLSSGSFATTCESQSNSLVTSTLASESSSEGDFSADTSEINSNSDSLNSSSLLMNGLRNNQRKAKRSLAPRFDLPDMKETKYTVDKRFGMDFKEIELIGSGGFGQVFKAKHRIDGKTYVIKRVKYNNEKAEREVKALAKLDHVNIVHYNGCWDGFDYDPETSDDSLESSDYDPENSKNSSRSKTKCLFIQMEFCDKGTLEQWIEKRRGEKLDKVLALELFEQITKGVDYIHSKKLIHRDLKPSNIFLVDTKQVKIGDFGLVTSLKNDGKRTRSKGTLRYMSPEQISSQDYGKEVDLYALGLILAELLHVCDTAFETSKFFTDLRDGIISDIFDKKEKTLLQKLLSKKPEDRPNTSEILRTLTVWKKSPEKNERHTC

Question: How did the inhibition [1] turn out when `CNc1cc(Oc2cc(C(=O)Nc3cc(N4CCN(C)CC4)cc(C(F)(F)F)c3)ccc2C)ncn1` was run?
Answer: Its inhibition is -6.7%.

Question: What about the inhibition [2] of the same compound?
Answer: Its inhibition is 30.2%.

Question: And the inhibition [3]?
Answer: Its inhibition is -3.6%.

Question: Which results are given for `CCN1CCN(Cc2ccc(NC(=O)c3ccc(C)c(/C=C/c4cnc5[nH]ccc5c4OC)c3)cc2C(F)(F)F)CC1`?
Answer: % of control [4]: 0.7%; inhibition [5]: -8.2%

Question: With `CCN1CCN(Cc2ccc(NC(=O)c3ccc(C)c(Oc4ccnc5[nH]ccc45)c3)cc2C(F)(F)F)CC1` as the compound, how does the inhibition [6] read?
Answer: The inhibition was 72.4%.

Question: What about the inhibition [7] of the same compound?
Answer: Its inhibition is 13%.

Question: And the inhibition [8]?
Answer: The inhibition was “inactive”.

Question: What about the inhibition [9] of the same compound?
Answer: Its inhibition is “inactive”.

Question: What about the inhibition [10] of the same compound?
Answer: The inhibition was -6.6%.
